Source: US20220175825A1, “COMPOSITION AND ASSOCIATED DELIVERY DEVICE FOR HYDROGEN THERAPY” (UNIVERSITE GRENOBLE ALPES, priority 2019, published 2022)

Assays:
[1] = cited from earlier work
[2] = pH of the PBS solution following dissolution of the hydride; assay type: physicochemical; settings: after dissolution
[3] = kinetics of dihydrogen release on dissolution of a hydride composition in 30 mL PBS solution, according to pH; assay type: physicochemical; settings: substantially 13 mg hydride in 30 mL PBS

Row | Compound | saturation limit concentration in water [1] | pH of the PBS solution following the dissolution of the hydride [2] | required time for reaching the release of about 1 ppm of dihydrogen after immersion ([3]; pH 5.8) | required time for reaching the release of about 1 ppm of dihydrogen after immersion ([3]; pH 7.4) | required time for reaching the release of about 1 ppm of dihydrogen after immersion ([3]; pH 8.45)
1 | [HH] [dihydrogen] | 1.57 ppm | – | – | – | –
2 | [H-].[H-].[Mg+2] [magnesium hydride] | – | 10 | about 30 seconds | ~4 min | ~5 min
